Experimental data published in patent EP1135374B9, “BENZIMIDAZOLE COMPOUNDS THAT ARE VITRONECTIN RECEPTOR ANTAGONISTS” (SCHERING CORPORATION, priority 1998, dated 2000).

Columns and labels:
[1] = target: T1, αvβ3 receptor (purified from human placenta) (Homo sapiens, UniProt P05106+P06756); experiment: competition radioligand binding assay, 125I-echistatin to αvβ3 receptor; settings: Table 16; αvβ3, inhibition of specific 125I-echistatin binding
T1 construct: αvβ3 receptor (purified from human placenta); from tissue; host or cells: human placenta
Protocol: The following assay procedure, which is a competition radioligand binding assay, was carried out to determine the activity of the foregoing compounds as αvβ3 antagonists. The competitive assay procedure described in Kumar, et. al., "Biochemical Characterization Of The Binding Of Echistatin To Integrin αvβ3 Receptor", Journal Of Pharmacology And Experimental Therapeutics, Vol. 283, No. 2, pp. 843-853 (1997) was employed. Thus, binding of ^125I-echistatin (radiolabeled by the chloramine-T method to a specific activity of 2000 Ci/mmol (Amersham, Chicago, Il.)) to αvβ3 receptor (purified from human placenta), both prepared as described in Kumar, et al., was competed by the compounds prepared in the foregoing examples. Purified αvβ3 receptor was coated onto Microlite-2 plates at a concentration of 50 ng/well. ^125I-echistatin was added to the wells to a final concentration of 0.05 nM in binding buffer (50 µl/well) in the presence of the competing test compound. The competing test compounds were employed at serially diluted concentrations ranging from 1 pM to 100 nM. After a 3 hour incubation at room temperature, the wells were washed, and radioactivity, reflecting binding by ^125 I-echistatin to αvβ3 receptors, was determined with Top Count (Packard). Each data point is an average of values from triplicate wells.
Specific binding of ^125I-echistatin was calculated as the difference between the amount of ^125I-echistatin bound in the absence (total binding) and the amount of ^125I-echistatin bound in the presence of a 200-fold molar excess of unlabeled echistatin (nonspecific binding). The efficacy of the test compounds for inhibiting specific binding of ^125I-echistatin to αvβ3 receptors was determined by plotting a graph of specific binding (y-axis) as a function of test compound concentration (x-axis). The concentration of test compound required to inhibit 50% of the specific binding (IC50) was determined from the plot. The IC50 may be directly converted mathematically to Ki, which is a measure of the receptor binding affinity of the compounds under the defined assay conditions.

[2] = target: purified αllbβ3 receptor (Homo sapiens, UniProt P05106+P08514); experiment: similar competitive binding assay with 125I-echistatin on αllbβ3 receptor, used for the specificity index; settings: Table 16; specificity index IC50 αllbβ3/ IC50 αvβ3
Protocol: To measure the relative affinity of the test compounds for αvβ3 receptors versus affinity for αllbβ3 receptors, similar competitive assays were carried out using purified αllbβ3 receptor and ^125I-echistatin (iodinated using the lactoperoxidase method). The specificity index, which is a measure of the relative binding affinity for αvβ3, versus αllbβ3, may be determined by dividing the IC50 value for αllbβ3 by the IC50 value for αvβ3.

Compound: Cn1c(CN(Cc2ccc(C(=O)NC[C@H](NC(=O)OCc3ccccc3)C(=O)O)cc2)C(=O)NC2CCCCC2)nc2ccccc21 [Example 5-92]
- IC50 [1]: 7.6 nM
- Specificity αllbβ3 / αvβ3 [2]: 174

Compound: CC(C)NC(=O)N(Cc1ccc(C(=O)NC[C@H](NC(=O)OCc2ccccc2)C(=O)O)cc1)Cc1nc2ccccc2n1C [Example 5-93]
- IC50 [1]: 6.7 nM
- Specificity αllbβ3 / αvβ3 [2]: 124

Compound: O=C(N[C@@H](CNC(=O)c1ccc(CN(Cc2nc3cc(Cl)ccc3[nH]2)C(=O)NC2CCCCC2)cc1)C(=O)O)OCc1ccccc1 [Example 5-94]
- IC50 [1]: 3.8 nM
- Specificity αllbβ3 / αvβ3 [2]: 399

Compound: CC(C)NC(=O)N(Cc1ccc(C(=O)NC[C@H](NC(=O)OCc2ccccc2)C(=O)O)cc1)Cc1nc2cc(Cl)ccc2[nH]1 [Example 5-95]
- IC50 [1]: 1.7 nM
- Specificity αllbβ3 / αvβ3 [2]: 775

Compound: O=C(O)CNC(=O)N(Cc1ccc(C(=O)NC[C@H](NC(=O)OCc2ccccc2)C(=O)O)cc1)Cc1nc2ccccc2[nH]1 [Example 5-96, N^3-[4-[(Benzimidazol-2-yl)methyl] [[(carboxymethyl)amino]carbonyl]aminomethylbenzoyl]-N^2-Cbz-L-2,3-diaminopropionic acid]
- IC50 [1]: 3.4 nM
- Specificity αllbβ3 / αvβ3 [2]: 528

Compound: CCCCOC(=O)N[C@@H](CNC(=O)c1ccc(CN(Cc2nc3ccccc3[nH]2)C(=O)NCC(=O)O)cc1)C(=O)O [Example 5-97, N^3-[4-[(Benzimidazol-2-yl)methyl][[(carboxymethyl)amino]carbonyl]aminomethylbenzoyl]-N^2-(n-butoxycarbonyl)-L-2,3-diaminopropionic acid]
- IC50 [1]: 4.3 nM
- Specificity αllbβ3 / αvβ3 [2]: 2600
